Measured values as given in PubChem BioAssay AID1963422 (Molecular Pharmacology Branch, DTP, NCI, 2024).

System: 463943-066-T-J2-PDC complex spheroid growth
Test: Anticancer human tumor 463943-066-T-J2-PDC patient-derived colon adenocarcinoma cell line growth inhibition [Asc]
Details: for IC50: curve of first compound; for viability, T/C: stronger effect = lower value
Method: Multicellular complex tumor spheroid response to apoptosis pathway targeting inhibitors Alrizomadlin, Pelcitoclax, and Dasminapant in combination with a variety of drugs and investigational agents in selected tumor cell lines
The MDM2 inhibitor alrizomadlin, the Bcl-2/Bcl-xL inhibitor pelcitoclax, and the IAPs inhibitor dasminapant were evaluated both individually and in combination with standard of care and investigational anticancer small molecules within a complex spheroid model of solid tumors. . Complex spheroids include a stromal component modeled by human endothelial cells (HUVEC) and fibroblasts modeled by human mesenchymal stem cells (MSCs). The concentration ranges selected for each drug and investigational agent were based upon clinically achievable concentrations if the clinical Cmax of the agent was known.
Compounds. The drugs and investigational agents: alrizomadlin (APG-115; NSC831270), pelcitoclax (APG-1252; NSC835773), dasminapant (APG-1387;NSC834197), TAK-243 (NSC785004), copanlisib (NSC809693), olaparib (NSC753686), talazoparib (NSC767125), cobimetinib (NSC 768068), eltanexor (KPT-8602, NSC 794443), abemaciclib (NSC 768073), sotorasib (NSC818433), adagrasib (NSC 831453), MRTX-1133 (NSC 836407), Iadademestat (ORY1001, NSC 806812), and RMC-4630 (NSC839698), were obtained from the NCI Developmental Therapeutics Program Chemical Repository. The FDA-approved anticancer drug set is available from the Developmental Therapeutics Program at https://dtp.cancer.gov/organization/dscb/obtaining/available plates.htm. […] The stock solutions were prepared in dimethyl sulfoxide (DMSO, Sigma-Aldrich, St. Louis, MO, cat. D2650) at 800-fold the tested concentration and stored at -70 degrees C prior to their use. All drugs and investigational agents were tested over a range starting from a high concentration at or near the clinical Cmax and decreasing in half-log increments. If the clinical Cmax for an agent had not been determined, the highest concentration tested was 10 microM.
The patient-derived cancer (PDC) cell lines include five colon adenocarcinomas: 186277-243-T-J2-PDC, 616215-338-R-J1-PDC, 439559-082-T-J2-PDC, 463943-066-T-J2-PDC, and 519858-162-T-J1-PDC; three pancreatic carcinomas: 323965-272-R-J2-PDC, 521955-158-R6-J3-PDC, and 521955-158-R2-J5-PDC; two uterine sarcomas: 327498-152-R-J2-PDC and 993429-296-R-J1-PDC; two rhabdomyosarcomas: 755483-174-R-J1-PDC and 772245-204-R-J1-PDC; two soft tissue sarcomas: 126254-015-R-J1-PDC and 494315-158-R-J1-PDC; two malignant fibrous histiocytomas: 317291-083-R-J1-PDC and 596521-263-R-J1-PDC; two breast carcinomas: 171881-019-R-J1-PDC and 885512-296-R-J2-PDC; and one ovarian carcinoma: 6556581-035-R-J-PDC were obtained from the NCI PDMR, (https://pdmr.cancer.gov). The established cell lines HSSY-2 synovial sarcoma (RRID:CVCL 8719), SYO-1 synovial sarcoma (RRID:CVCL_7146), MPNST malignant peripheral neural sheath tumor were obtained from the Sloan Kettering Institute. The following established cell lines were purchased from the American Type Culture Collection (ATCC, Manassas, VA), Sor the received from the NCI repository:, PANC-1 pancreatic carcinoma (CRL-1469, RRID:CVCL_0480), OVCAR-5 ovarian carcinoma (RRID:CVCL_1628), OVCAR-8 ovarian carcinoma (RRID:CVCL_1629), , MCF-7 breast carcinoma (CRL-12584, RRID:CVCL_0031), MDA-MB-231 breast carcinoma (CRL-12532, RRID:CVCL_0062), NCI-H1876 small cell lung carcinoma (CRL-5902, RRID:CVCL_1503), NCI-H510A small cell lung carcinoma (HTB-184, RRID:CVCL_1565), NCI-H1417 (CRL-5869, RRID:CVCL_1469), and NCI-H196 small cell lung carcinoma (CRL-5823, RRID:CVCL_1509). Dr. Peter Houghton (Greehey Children's Cancer Research Institute, University of Texas Health Science Center, San Antonio, TX) provided Rh-18 rhabdomyosarcoma (RRID:CVCL_1659). Pooled donor human umbilical vein endothelial cells (HUVEC, Lonza, cat. CC-2519) and human mesenchymal stem cells (hMSC, Lonza, cat. PT-2501) were purchased from Lonza (Walkersville, MD).
Cell Culture. […]

[1] = second compound 0.00949 µM, first compound 0.00316 µM
[2] = second compound 0.00949 µM, first compound 0.01 µM
[3] = second compound 0.00949 µM, first compound 0.0316 µM
[4] = second compound 0.00949 µM, first compound 0.1 µM
[5] = second compound 0.00949 µM, first compound 0.316 µM
[6] = second compound 0.00949 µM, first compound 1 µM
[7] = second compound 0.03 µM, first compound 0.00316 µM
[8] = second compound 0.03 µM, first compound 0.01 µM
[9] = second compound 0.03 µM, first compound 0.0316 µM
[10] = second compound 0.03 µM, first compound 0.1 µM
[11] = second compound 0.03 µM, first compound 0.316 µM
[12] = second compound 0.03 µM, first compound 1 µM
[13] = second compound 0.0949 µM, first compound 0.00316 µM
[14] = second compound 0.0949 µM, first compound 0.01 µM
[15] = second compound 0.0949 µM, first compound 0.0316 µM
[16] = second compound 0.0949 µM, first compound 0.1 µM
[17] = second compound 0.0949 µM, first compound 0.316 µM
[18] = second compound 0.0949 µM, first compound 1 µM
[19] = second compound 0.3 µM, first compound 0.00316 µM
[20] = second compound 0.3 µM, first compound 0.01 µM
[21] = second compound 0.3 µM, first compound 0.0316 µM
[22] = second compound 0.3 µM, first compound 0.1 µM
[23] = second compound 0.3 µM, first compound 0.316 µM
[24] = second compound 0.3 µM, first compound 1 µM
[25] = second compound 0.949 µM, first compound 0.00316 µM
[26] = second compound 0.949 µM, first compound 0.01 µM
[27] = second compound 0.949 µM, first compound 0.0316 µM
[28] = second compound 0.949 µM, first compound 0.1 µM
[29] = second compound 0.949 µM, first compound 0.316 µM
[30] = second compound 0.949 µM, first compound 1 µM
[31] = second compound 3 µM, first compound 0.00316 µM
[32] = second compound 3 µM, first compound 0.01 µM
[33] = second compound 3 µM, first compound 0.0316 µM
[34] = second compound 3 µM, first compound 0.1 µM
[35] = second compound 3 µM, first compound 0.316 µM
[36] = second compound 3 µM, first compound 1 µM
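Also: compound exposure lasted 7 days.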
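For viability, T/C in this document: 100% = DMSO vehicle control wells.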

**Q.** How did the IC50 (second compound 0.00949 µM) turn out when `CCN1CCN(Cc2ccc(Nc3ncc(F)c(-c4cc(F)c5nc(C)n(C(C)C)c5c4)n3)nc2)CC1` + CCN1C(C(=O)NC23CCC(C(=O)O)(CC2)CC3)C(c2cccc(Cl)c2F)C2(C(=O)Nc3cc(Cl)ccc32)C12CCCCC2 was run?
**A.** > 1000 nM

**Q.** What about the IC50 (second compound 0.03 µM) of the same compound?
**A.** > 1000 nM

**Q.** What about the IC50 (second compound 0.0949 µM) of the same compound?
**A.** > 1000 nM

**Q.** And the IC50 (second compound 0.3 µM)?
**A.** > 1000 nM

**Q.** What about the IC50 (second compound 0.949 µM) of the same compound?
**A.** > 1000 nM

**Q.** And the IC50 (second compound 3 µM)?
**A.** > 1000 nM

**Q.** What about the viability, T/C [1] of the same compound?
**A.** 99.6%

**Q.** And the viability, T/C [2]?
**A.** 92.3%

**Q.** What about the viability, T/C [3] of the same compound?
**A.** 91.4%

**Q.** What about the viability, T/C [4] of the same compound?
**A.** 96.2%

**Q.** What about the viability, T/C [5] of the same compound?
**A.** 110%

**Q.** And the viability, T/C [6]?
**A.** 113%

**Q.** What about the viability, T/C [7] of the same compound?
**A.** 94.8%

**Q.** What about the viability, T/C [8] of the same compound?
**A.** 93.2%

**Q.** And the viability, T/C [9]?
**A.** 92.7%

**Q.** What about the viability, T/C [10] of the same compound?
**A.** 92.5%

**Q.** And the viability, T/C [11]?
**A.** 104%

**Q.** And the viability, T/C [12]?
**A.** 109%

**Q.** And the viability, T/C [13]?
**A.** 91.4%

**Q.** What about the viability, T/C [14] of the same compound?
**A.** 90.8%

**Q.** What about the viability, T/C [15] of the same compound?
**A.** 84.2%

**Q.** What about the viability, T/C [16] of the same compound?
**A.** 92%

**Q.** What about the viability, T/C [17] of the same compound?
**A.** 96.2%

**Q.** What about the viability, T/C [18] of the same compound?
**A.** 106%

**Q.** What about the viability, T/C [19] of the same compound?
**A.** 85.6%

**Q.** And the viability, T/C [20]?
**A.** 76.9%

**Q.** And the viability, T/C [21]?
**A.** 80.3%

**Q.** What about the viability, T/C [22] of the same compound?
**A.** 78%

**Q.** What about the viability, T/C [23] of the same compound?
**A.** 88.9%

**Q.** What about the viability, T/C [24] of the same compound?
**A.** 106%

**Q.** What about the viability, T/C [25] of the same compound?
**A.** 74.5%

**Q.** And the viability, T/C [26]?
**A.** 75.5%

**Q.** What about the viability, T/C [27] of the same compound?
**A.** 76.2%

**Q.** And the viability, T/C [28]?
**A.** 75.4%

**Q.** And the viability, T/C [29]?
**A.** 81.5%

**Q.** And the viability, T/C [30]?
**A.** 99.4%

**Q.** And the viability, T/C [31]?
**A.** 72.5%

**Q.** And the viability, T/C [32]?
**A.** 71.8%

**Q.** And the viability, T/C [33]?
**A.** 71.8%

**Q.** What about the viability, T/C [34] of the same compound?
**A.** 74.4%

**Q.** What about the viability, T/C [35] of the same compound?
**A.** 88.8%

**Q.** And the viability, T/C [36]?
**A.** 103%

**Q.** Which results are given for `O=C(c1ccc(F)c(F)c1Nc1ccc(I)cc1F)N1CC(O)([C@@H]2CCCCN2)C1` + CCN1C(C(=O)NC23CCC(C(=O)O)(CC2)CC3)C(c2cccc(Cl)c2F)C2(C(=O)Nc3cc(Cl)ccc32)C12CCCCC2?
**A.** IC50 (second compound 0.00949 µM): 188 nM; IC50 (second compound 0.03 µM): 133 nM; IC50 (second compound 0.0949 µM): 117 nM; IC50 (second compound 0.3 µM): 70.6 nM; IC50 (second compound 0.949 µM): 34.9 nM; IC50 (second compound 3 µM): 17.7 nM; viability, T/C [1]: 86.3%; viability, T/C [2]: 78.7%; viability, T/C [3]: 74.2%; viability, T/C [4]: 63.5%; viability, T/C [5]: 39.1%; viability, T/C [6]: 27.9%; viability, T/C [7]: 93.5%; viability, T/C [8]: 77.5%; viability, T/C [9]: 63.7%; viability, T/C [10]: 56.2%; viability, T/C [11]: 40%; viability, T/C [12]: 29%; viability, T/C [13]: 84.5%; viability, T/C [14]: 74.7%; viability, T/C [15]: 65.7%; viability, T/C [16]: 50.8%; viability, T/C [17]: 39.4%; viability, T/C [18]: 28.2%; viability, T/C [19]: 79.5%; viability, T/C [20]: 65.2%; viability, T/C [21]: 54.9%; viability, T/C [22]: 50.5%; viability, T/C [23]: 37.8%; viability, T/C [24]: 29.6%; viability, T/C [25]: 67.8%; viability, T/C [26]: 60%; viability, T/C [27]: 48.3%; viability, T/C [28]: 44.1%; viability, T/C [29]: 39.5%; viability, T/C [30]: 32.4%; viability, T/C [31]: 65%; viability, T/C [32]: 55.7%; viability, T/C [33]: 44.2%; viability, T/C [34]: 40.4%; viability, T/C [35]: 36.6%; viability, T/C [36]: 33.8%
